≈ marks a conversion by molar mass, not a printed value. Each block holds one molecule with its values, some of them ahead of it.
Columns and labels:
Format in all cases: physicochemical
[1] = Mechanical properties of batches of Solid Form A; conditions: lots of Solid Form A; A2 and A9 unmilled, A3 and A6/A7 milled
[2] = True density of Solid Form A; conditions: lots of Solid Form A; A2 and A9 unmilled, A3 and A6/A7 milled
[3] = Particle size of batches of Solid Form A; conditions: batches of Solid Form A, milled or unmilled per batch
Text: Primary particles from below 100 μm to around 500 μm in size, with soft agglomerates up to several millimeters, were observed. The D[4,3] of this material was 195 μm. This material was subsequently milled, to give far fewer large particles and an overall much smaller average primary particle size, giving a D[4,3] of 49.5 μm. See Table 8 for a comparison of particle size properties of various batches.

[4] = Solubility of Solid Form A and amorphous Compound X in various solvents at room temperature

Brittle fracture index, Rating [1]: Low
Brittle fracture index, Value [1]: 0.0486
Brittle/viscoelastic bonding index (x105), Value [1]: 2.61
Brittle/viscoelastic bonding index, Rating [1]: Poor
Compression stress (MPa), Value [1]: 58.8 MPa
Compression stress, Rating [1]: Moderate
Compromised Tensile strength (MPa), Value [1]: 0.274 MPa
Solid fraction, Value [1]: 0.87
Tensile strength (MPa), Value [1]: 0.3 MPa
Tensile strength, Rating [1]: Low
True density (g/cm3), Value [2]: 1.28 g/cm3
Particle size D[4, 3] [3]: 144 μm
Particle size D[v, 0.1] [3]: 45.6 µm
Particle size D[v, 0.9] [3]: 247 µm
SMILES: CC1CN(Cc2ncccn2)CC1c1nc2c(cnn2C2CCOCC2)c(=O)[nH]1 (stereo not drawn) [A2]

Brittle fracture index, Rating [1]: Low
Brittle fracture index, Value [1]: 0.139
Brittle/viscoelastic bonding index (x105), Value [1]: 8.44
Brittle/viscoelastic bonding index, Rating [1]: Marginal
Compression stress (MPa), Value [1]: 67.9 MPa
Compression stress, Rating [1]: Moderate
Compromised Tensile strength (MPa), Value [1]: 0.488 MPa
Solid fraction, Value [1]: 0.857
Tensile strength (MPa), Value [1]: 0.624 MPa
Tensile strength, Rating [1]: Moderate
True density (g/cm3), Value [2]: 1.29 g/cm3
Particle size D[4, 3] [3]: 60.2 μm
Particle size D[v, 0.1] [3]: 10.5 µm
Particle size D[v, 0.9] [3]: 126 µm
SMILES: CC1CN(Cc2ncccn2)CC1c1nc2c(cnn2C2CCOCC2)c(=O)[nH]1 (stereo not drawn) [A3]

Particle size D[4, 3] [3]: 24.1 μm
Particle size D[v, 0.1] [3]: 4.39 µm
Particle size D[v, 0.9] [3]: 52.5 µm
SMILES: CC1CN(Cc2ncccn2)CC1c1nc2c(cnn2C2CCOCC2)c(=O)[nH]1 (stereo not drawn) [A4]

Particle size D[4, 3] [3]: 89.2 μm
Particle size D[v, 0.1] [3]: 6.86 µm
Particle size D[v, 0.9] [3]: 197 µm
SMILES: CC1CN(Cc2ncccn2)CC1c1nc2c(cnn2C2CCOCC2)c(=O)[nH]1 (stereo not drawn) [A5]

Brittle fracture index, Rating [1]: Low
Brittle fracture index, Value [1]: 0.022
Brittle/viscoelastic bonding index (x105), Value [1]: 5.3
Brittle/viscoelastic bonding index, Rating [1]: Poor
Compression stress (MPa), Value [1]: 56.3 MPa
Compression stress, Rating [1]: Moderate
Compromised Tensile strength (MPa), Value [1]: 0.393 MPa
Dynamic indentation hardness (MPa), Value [1]: 41.6 MPa
Dynamic indentation hardness [ductility rating], Rating [1]: Very high
Solid fraction, Value [1]: 0.85
Tensile strength (MPa), Value [1]: 0.41 MPa
Tensile strength, Rating [1]: Low
True density (g/cm3), Value [2]: 1.29 g/cm3
SMILES: CC1CN(Cc2ncccn2)CC1c1nc2c(cnn2C2CCOCC2)c(=O)[nH]1 (stereo not drawn) [A6/A7]

Particle size D[4, 3] [3]: 78.6 μm
Particle size D[v, 0.1] [3]: 5.89 µm
Particle size D[v, 0.9] [3]: 179 µm
Particle size D[4, 3] ([3]; listed as A7): 85.1 μm
Particle size D[v, 0.1] ([3]; listed as A7): 6.17 µm
Particle size D[v, 0.9] ([3]; listed as A7): 191 µm
SMILES: CC1CN(Cc2ncccn2)CC1c1nc2c(cnn2C2CCOCC2)c(=O)[nH]1 (stereo not drawn) [A6]

Particle size D[4, 3] [3]: 48.6 μm
Particle size D[v, 0.1] [3]: 3.96 µm
Particle size D[v, 0.9] [3]: 118 µm
SMILES: CC1CN(Cc2ncccn2)CC1c1nc2c(cnn2C2CCOCC2)c(=O)[nH]1 (stereo not drawn) [A8]

Brittle fracture index, Rating [1]: Very low
Brittle fracture index, Value [1]: −0.077
Brittle/viscoelastic bonding index (x105), Value [1]: 1.95
Brittle/viscoelastic bonding index, Rating [1]: Poor
Compression stress (MPa), Value [1]: 52.5 MPa
Compression stress, Rating [1]: Moderate
Compromised Tensile strength (MPa), Value [1]: 0.302 MPa
Dynamic indentation hardness (MPa), Value [1]: 63.6 MPa
Dynamic indentation hardness [ductility rating], Rating [1]: High
Solid fraction, Value [1]: 0.85
Tensile strength (MPa), Value [1]: 0.255 MPa
Tensile strength, Rating [1]: Very low
Worst case bonding index (x102), Value [1]: 0.401
Worst case bonding index, Rating [1]: Moderate
True density (g/cm3), Value [2]: 1.29 g/cm3
Particle size D[4, 3] [3]: 195 μm
Particle size D[v, 0.1] [3]: 20.6 µm
Particle size D[v, 0.9] [3]: 362 µm
SMILES: CC1CN(Cc2ncccn2)CC1c1nc2c(cnn2C2CCOCC2)c(=O)[nH]1 (stereo not drawn) [A9]

Particle size D[4, 3] [3]: 49.5 μm
Particle size D[v, 0.1] [3]: 3.29 µm
Particle size D[v, 0.9] [3]: 129 µm
SMILES: CC1CN(Cc2ncccn2)CC1c1nc2c(cnn2C2CCOCC2)c(=O)[nH]1 (stereo not drawn) [A10]

Solubility (mg/ml) ([4]; 1,2-Xylene): 19.9 mg/mL (≈ 50.3 mM)
Solubility (mmol) ([4]; 1,2-Xylene): 50 mmol
Solubility (mmol) ([4]; Acetone): >202 mmol
Solubility (mg/ml) ([4]; Chloroform): >92.3 mg/mL
Solubility (mmol) ([4]; Chloroform): >233 mmol
Solubility (mg/ml) ([4]; Dioxane): 27.9 mg/mL (≈ 70.5 mM)
Solubility (mmol) ([4]; Dioxane): 71 mmol
Solubility (mg/ml) ([4]; EtOAc): 20.6 mg/mL (≈ 52.1 mM)
Solubility (mmol) ([4]; EtOAc): 52 mmol
Solubility (mg/ml) ([4]; EtOH): >98.6 mg/mL
Solubility (mmol) ([4]; EtOH): >249 mmol
Solubility (mg/ml) ([4]; Glyme (1,2-Dimethoxyethane)): >113.2 mg/mL
Solubility (mmol) ([4]; Glyme (1,2-Dimethoxyethane)): >286 mmol
Solubility (mg/ml) ([4]; H2O (Water)): 64.8 mg/mL (≈ 164 mM)
Solubility (mmol) ([4]; H2O (Water)): 164 mmol
Solubility (mg/ml) ([4]; H2O-EtOH (Water/EtOH)): >26.8 mg/mL
Solubility (mmol) ([4]; H2O-EtOH (Water/EtOH)): >68 mmol
Solubility (mg/ml) ([4]; H2O-MeCN (Water/MeCN)): >75.6 mg/mL
Solubility (mmol) ([4]; H2O-MeCN (Water/MeCN)): >191 mmol
Solubility (mg/ml) ([4]; H2O-MeOH (Water/MeOH)): >42.5 mg/mL
Solubility (mmol) ([4]; H2O-MeOH (Water/MeOH)): >107 mmol
Solubility (mg/ml) ([4]; H2O-acetone (Water/acetone)): >130.3 mg/mL
Solubility (mmol) ([4]; H2O-acetone (Water/acetone)): >329 mmol
Solubility (mg/ml) ([4]; Heptane): 0.7 mg/mL (≈ 1.77 mM)
Solubility (mmol) ([4]; Heptane): 2 mmol
Solubility (mg/ml) ([4]; IPA): >85.9 mg/mL
Solubility (mmol) ([4]; IPA): >217 mmol
Solubility (mg/ml) ([4]; MTBE): 11.2 mg/mL (≈ 28.3 mM)
Solubility (mmol) ([4]; MTBE): 28 mmol
Solubility (mg/ml) ([4]; MeCN): >117.3 mg/mL
Solubility (mmol) ([4]; MeCN): >297 mmol
Solubility (mg/ml) ([4]; MeOH): >90.2 mg/mL
Solubility (mmol) ([4]; MeOH): >228 mmol
Solubility (mg/ml) ([4]; Nitromethane): >70.2 mg/mL
Solubility (mmol) ([4]; Nitromethane): >178 mmol
Solubility (mg/ml) ([4]; THF): 81.5 mg/mL (≈ 206 mM)
Solubility (mmol) ([4]; THF): 206 mmol
Solubility (mg/ml) ([4]; Toluene): 18.3 mg/mL (≈ 46.3 mM)
Solubility (mmol) ([4]; Toluene): 46 mmol
solubility ([4]; acetone, organic solvent or mixture): > 79.7 mg/mL
SMILES: C[C@@H]1CN(Cc2ncccn2)C[C@H]1c1nc2c(cnn2C2CCOCC2)c(=O)[nH]1 [amorphous Compound X, 6-((3S,4S)-4-methyl-1-(pyrimidin-2-ylmethyl)pyrrolidin-3-yl)-1-(tetrahydro-2H-pyran-4-yl)-1,5-dihydro-4H-pyrazolo[3,4-d]pyrimidin-4-one]
